Our source for the TGI values is PubChem BioAssay (NCI).

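1) Cells in 96-well plates. 2) Compound, 48 h, 5 concentrations. 3) Linear interpolation between surrounding doses. 4) Unreached endpoint = highest concentration. The concentration for full growth arrest is given as TGI.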

Common to all, as to assay: growth of human tumour cells (NCI), 48 h
Assay [1] relates to MDA-MB-435.
The test system of assay [2] is SNB-75 CNS.
In assay [3] the test system is MALME-3M melanoma.
For assay [4], the system named is SK-OV-3 ovarian.
In assay [5] the test system is HL-60(TB) leukemia.
The test system of assay [6] is SR leukemia.
Assay [7] deals with TK-10 renal.
Assay [8] deals with UACC-62 melanoma.
Assay [9] concerns HOP-92 NSCLC.
Assay [10] concerns OVCAR-4 ovarian.
For assay [11], the system named is NCI-H522 lung.
The test system of assay [12] is MDA-N.
Assay [13] has as its system UACC-257 melanoma.
Assay [14] has as its system OVCAR-8 ovarian.
The subject of assay [15] is HT29 colon.
In assay [16] the test system is ACHN renal.
Assay [17] has as its system IGROV1 ovarian.
For assay [18], the system named is SK-MEL-28 melanoma.
For assay [19], the system named is A498 renal.

Turning to `CNc1nc(=O)c(C#N)c(-c2ccc(C)cc2)s1`, the TGI in [1], in assay [2], in [3], in assay [4], in assay [5] and in assay [6] was greater than 100 µM each time. Further, the TGI in [7], in assay [8], in [9], in assay [10], in assay [11] and in assay [12] was greater than 100 µM in each case. Further, the TGI in assay [13], in [14], in assay [15], in [16], in assay [17] and in assay [18] was greater than 100 µM each time.

For the compound `CN1CCN(CCCCNc2cc3c4ccccc4c(NCCCCN4CCN(C)CC4)cc3c3ccccc23)CC1`, the TGI worked out at 0.359 µM in assay [1]; 7.8 µM in assay [2]; 5.09 µM in [3]; 29.4 µM in assay [4]; 14.9 µM in assay [5]; 18.4 µM in [7]. For the same compound, the TGI is 6.05 µM in assay [8]; 28.2 µM in assay [9]; 2.87 µM in assay [10]; 6.51 µM in [11]; 0.977 µM in assay [12]; 19 µM in assay [13]. The TGI was 10.2 µM in assay [14]; 4.19 µM in assay [15]; 28.5 µM in assay [19]; 17.3 µM in [16]; 5.52 µM in assay [17]; 29 µM in assay [18].

For `CN(C)C(=O)CO/N=C1/C(c2c(O)[nH]c3ccccc23)=Nc2ccccc21`, the TGI was greater than 100 µM in assay [1]; 89.8 µM in [2]; greater than 100 µM in assay [3]; greater than 100 µM in assay [4]; greater than 100 µM in assay [5]; greater than 100 µM in assay [6]. Besides, the TGI in assay [7], in [8], in assay [9], in assay [10], in assay [11] and in assay [12] was greater than 100 µM in each case. Besides, the TGI in assay [13], in assay [14], in assay [15], in assay [16], in assay [17] and in [18] was greater than 100 µM throughout.

Regarding `CC1(C)C(C(=O)OC(C#N)c2cccc(OCC(=O)OCc3ccccc3)c2)C1(C)C` (stereo not drawn), the TGI in [1] is greater than 100 µM; in assay [2], greater than 100 µM; in assay [3] it was greater than 100 µM; in assay [4], greater than 100 µM; in assay [5] it was 22.9 µM; in [7] it was greater than 100 µM. In addition, the TGI in assay [8], in assay [9], in [10], in assay [11], in assay [12] and in [13] was greater than 100 µM each time. Also, the TGI in assay [14], in assay [15], in assay [19], in assay [16], in assay [17] and in assay [18] was greater than 100 µM each time.

Take `COC(=O)C(Cc1ccccc1)NC(=O)C(CCCN=C(N)N)NC(=O)OCc1ccccc1` (stereo not drawn): the TGI in assay [1], in [2], in assay [3], in assay [4], in [5] and in assay [6] was greater than 100 µM each time. In addition, the TGI in assay [7], in [8], in assay [9], in [10], in assay [11] and in [12] was greater than 100 µM throughout. Also, the TGI in [14], in assay [15], in assay [16], in assay [17] and in assay [18] was greater than 100 µM each time.

`CC[C@@]1(O)C(=O)OCc2c1cc1n(c2=O)Cc2c-1nc1ccccc1c2/C=N\NC(=O)C(N)=O`: the TGI in assay [1] was greater than 100 µM; in [2], greater than 26 µM; in assay [3], greater than 79.3 µM; in [4], 27.5 µM; in assay [5] it was greater than 100 µM; in assay [7] it was greater than 100 µM. Also, the TGI was 3.54 µM in [8]; 12.9 µM in [9]; greater than 100 µM in assay [10]; 46.5 µM in [11]; greater than 100 µM in assay [12]; greater than 100 µM in assay [13]. The TGI in assay [14] is 37 µM; in [15], greater than 100 µM; in assay [19], 9.81 µM; in assay [16], 0.814 µM; in assay [17] it was 49.4 µM; in assay [18] it was greater than 100 µM.

As to `CCC(=O)n1c(=O)n(-c2ccc([N+](=O)[O-])cc2)c(=O)n1C(=O)CC`, the TGI in assay [1], in assay [2], in assay [4], in [5], in [6] and in [7] was greater than 100 µM in each case. The TGI in [8], in assay [10], in assay [11], in assay [12], in assay [13] and in assay [14] was greater than 100 µM in each case. For the same compound, the TGI in assay [15], in assay [16], in [17] and in [18] was greater than 100 µM throughout.
